Measured values from US20240309117A1, “APTAMER-PEPTIDE CONJUGATES” (CITY UNIVERSITY OF HONG KONG, priority 2023, published 2024).
[L-RNA-N] = L-ribonucleotide (mirror-image RNA) unit (N: the base)

Key:
[1] = system: hTERC rG4 WT; test: Dual-luciferase reporter gene assay, hTERC rG4 WT, HeLa cells; assay type: cell-based, human; conditions: 200 nM, 48 hours
Protocol: (§1) The DNA sequences encoding hTERC rG4 WT, hTERC rG4 Mut, NRAS rG4 WT, NRAS rG4 Mut, APP rG4 WT, and APP rG4 Mut (Table 1) were respectively introduced into the 5′UTR of the renilla luciferase gene in the psiCHECK-2 vector. 2×10^4 HeLa cells were seeded on 96-well black-wall plates. In sequential addition assay, 10 ng WT and Mut plasmids were transfected to cells by LIPOFECTAMINE® 2000 separately. Subsequently, Tamra_Ahx_R8, Tamra_Ahx_R8_L-Apt.4-1c, and L-Apt.4-1c (0, 100 nM, 200 nM) were separately added to cells after being washed with phosphate buffered saline (PBS) at 4 hours post-transfection and incubated for 48 hours. In co-transfection assay, 10 ng WT or Mut plasmid was co-transfected with Tamra_Ahx_R8, Tamra_Ahx_R8_L-Apt.4-1c, and L-Apt.4-1c (0, 100 nM, 200 nM) separately to cells by LIPOFECTAMINE® 2000 and incubated for 48 hours. Luciferase activity was determined by microplate reader. The renilla activity was normalized to firefly activity for data analysis.

[2] = system: hTERC rG4 WT; test: Dual-luciferase reporter assay, hTERC rG4 WT, HEK 293T cells; assay type: cell-based, human
Protocol: as §1

With “L-Apt.4-1c: the L-RNA aptamer of SEQ ID NO: 1 (GCCCUAAAGGUGGUGGUGGGAGGGC), non-conjugated control (all [L-RNA-N], backbone not given here)” the “Effect on normalized luciferase activity, hTERC rG4 WT construct” value (“Effect on normalized luciferase activity” for short) ([1]; co-transfection with plasmid by LIPOFECTAMINE 2000, 0, 100 nM) was “only functioned well in co-transfection method”, the “Effect on normalized luciferase activity” value ([1]; sequential addition, absence of transfection reagent, 0, 100 nM) was “neither Tamra_Ahx_R8 peptide nor L-Apt.4-1c modulated luciferase activity” and the “Effect on normalized luciferase activity” value [2] was “cannot regulate luciferase activity”.
